{"source": "patent US20150238579A1", "about": "“METHODS FOR ASSEMBLING A PRODUCT FOR MODULATING AN IMMUNOMODULATORY RESPONSE IN HUMANS” (INVESTFOOD, LLC, priority 2014, published 2015)", "key": {"[1]": {"tested_on": "human acute monocytic leukemia cell line THP-1", "test": "IL-6 production in LPS/PMA-activated THP-1 cells (ELISA)", "format": "cell-based", "method": "(§1) The effects of different concentrations of PTSO on cytokine production (IL-1β and IL-6) in the human acute monocytic leukemia cell line THP-1 activated by lipopolysaccharide (LPS) and phorbol 12-myristate 13-acetate (PMA) were evaluated. Of note, IL-1β and IL-6 cytokines have been reported to play a key role in the activated immune response that takes place in different inflammatory and/or immune conditions.\n(§2) The human acute monocytic leukemia cell line THP-1 was obtained from the Cell Culture Unit of the University of Granada (Granada, Spain) (ECACC reference number: 88081201). These cells were cultured in Roswell Park Memorial Institute (RPMI) 1640 medium (Sigma, St Louis, Mo., USA) supplemented with 10% fetal bovine serum (Sigma), 2 mM glutamine and 0.05 mM mercaptoethanol in a humidified 5% carbon dioxide (CO2) atmosphere at 37° C. The cultured cells were seeded onto 24-well plates at a density of 5×10^5 cells/ml and pre-incubated for twenty four (24) hours with the different concentrations of the test compound (ranging from 0.1 to 25 μM of PTSO), and then stimulated with 1 μg/ml LPS and 1 μM phorbol 12-myristate 13-acetate (PMA). After twenty-four hours, the supernatants were collected and centrifuged at 1,000 g for 10 min, and then stored at −80° C. for the determination of IL-1β and IL-6 levels by an enzyme-linked immunosorbent assay (ELISA) (GE Healthcare, Little Chalfont, UK)."}, "[2]": {"tested_on": "human T cell line JURKAT E6.1", "test": "IFN-γ production in ionomycin/PMA-stimulated JURKAT E6.1 cells (ELISA)", "format": "cell-based", "details": "JURKAT E6.1, 2 and 24 h pre-incubation with 0.1 to 25 μM PTSO, then 40 nM ionomycin and 0.5 μM PMA, FIG. 6", "method": "The human T cell line JURKAT E6.1 was obtained from the Cell Culture Unit of the University of Granada (Granada, Spain) (ECACC reference number: 88042803). Cells from the human T cell line JURKAT E6.1 were cultured in RPMI 1640 (Sigma) supplemented with 10% fetal bovine serum (Sigma), 2 mM glutamine and 0.05 mM mercaptoethanol in a humidified 5% CO2 atmosphere at 37° C. The cultured cells from the human T cell line JURKAT E6.1 were seeded onto 24-well plates at the concentration of 500,000 cells/ml and pre-incubated for 2 and 24 hours with the different concentrations of the test compound (ranging from 0.1 to 25 μM of PTSO), and then stimulated with 40 nM ionomycin and 0.5 μM of PMA. After twenty four hours (24 hours), the supernatants were collected and centrifuged at 1,000 g for 10 min, and stored at −80° C. for the determination of IFN-γ levels by ELISA (GE Healthcare)."}, "[3]": {"tested_on": "Jurkat cells", "test": "Cell viability (MTT assay), Jurkat", "format": "cell-based, human", "details": "concentrations up to 25 μM"}, "[4]": {"tested_on": "human acute monocytic leukemia cell line THP-1", "test": "IL-1β production in LPS/PMA-activated THP-1 cells (ELISA)", "format": "cell-based", "details": "THP-1, 24 h pre-incubation with 0.1 to 25 μM PTSO, then 1 μg/ml LPS and 1 μM PMA, FIG. 3", "method": "as §1\nas §2, with “After twenty-four hours, the supernatants were collected and centrifuged at 1,000 g for 10 min, and then stored at −80° C. for the determination of IL-1β and IL-6 levels by an enzyme-linked immunosorbent assay (ELISA) (GE Healthcare, Little Chalfont, UK).” left out"}, "[5]": {"tested_on": "THP-1 cells", "test": "Cell viability (MTT assay), THP-1", "format": "cell-based, human", "details": "THP-1, concentrations up to 25 μM"}, "[6]": {"tested_on": "human epithelial colorectal adenocarcinoma cells (CACO-2)", "test": "IL-8 production in IL-1β-activated CACO-2 cells (ELISA)", "format": "cell-based", "details": "Caco-2, 24 h pre-incubation with 0.1 to 25 μM PTSO, then 1 ng/ml IL-1β, FIG. 5", "method": "The effects of different concentrations of PTSO on cytokine production (IL-8) in the epithelial cell line human epithelial colorectal adenocarcinoma cells (CACO-2) activated by IL-1β were evaluated. IL-8 acts as a neutrophil attractant, which participates in the neutrophil infiltration that occurs in mucosal sites affected by an inflammatory process.\nThe human colonic adenocarcinoma cell line CACO-2 was obtained from the Cell Culture Unit of the University of Granada (Granada, Spain) (ECACC reference number: 86010202). Cells from the human colonic adenocarcinoma cell line CACO-2 were cultured in RPMI 1640 (Sigma) supplemented with 10% fetal bovine serum (Sigma), 2 mM glutamine and 0.05 mM mercaptoethanol in a humidified 5% CO2 atmosphere at 37° C. The cultured cells were seeded onto 24-well plates until confluence and pre-incubated for twenty-four hours (24 hr) with the different concentrations of the test compound (ranging from 0.1 to 25 μM of PTSO), and then stimulated with 1 ng/ml IL-1β. […] The effects of the different concentrations of PTSO on cell viability were assessed by using the methylthiazol terazolium (MTT) assay (Promega), following the same protocol of incubation of the test compound similar to that described above."}, "[7]": {"tested_on": "CACO-2 cells", "test": "Cell viability (MTT assay), CACO-2", "format": "cell-based, human", "details": "CACO-2, concentrations up to 25 μM", "method": "The human colonic adenocarcinoma cell line CACO-2 was obtained from the Cell Culture Unit of the University of Granada (Granada, Spain) (ECACC reference number: 86010202). Cells from the human colonic adenocarcinoma cell line CACO-2 were cultured in RPMI 1640 (Sigma) supplemented with 10% fetal bovine serum (Sigma), 2 mM glutamine and 0.05 mM mercaptoethanol in a humidified 5% CO2 atmosphere at 37° C. The cultured cells were seeded onto 24-well plates until confluence and pre-incubated for twenty-four hours (24 hr) with the different concentrations of the test compound (ranging from 0.1 to 25 μM of PTSO), and then stimulated with 1 ng/ml IL-1β. After twenty four hours (24 hr), the supernatants were collected and centrifuged at 1,000 g for 10 min, and stored at −80° C. for the determination of IL-8 levels by ELISA (GE Healthcare). The effects of the different concentrations of PTSO on cell viability were assessed by using the methylthiazol terazolium (MTT) assay (Promega), following the same protocol of incubation of the test compound similar to that described above."}}, "data": [{"smiles": "CCCSS(=O)(=O)CCC", "note": "[PTSO, 1-propylsulfonylsulfanylpropane]", "values": [{"measurement": "production of IL-6", "setting": "[1]; THP-1, 24 h pre-incubation with 0.1 to 25 μM PTSO, then 1 μg/ml LPS and 1 μM PMA, 24 h, FIG. 4", "value": "can modulate the production of IL-6"}, {"measurement": "production of IL-6 at 0.1 µM", "setting": "[1]; THP-1 cells, at 0.1 µM", "value": "can increase the production of IL-6"}, {"measurement": "production of IL-6 at more than 1 mM", "setting": "[1]; THP-1 cells, starting from more than 1 mM dose", "value": "a clear immunosuppressive effect is observed"}, {"measurement": "production of interferon gamma (IFN-γ)", "setting": "[2]", "value": "modulating immune function on the production of interferon gamma (IFN-γ)"}, {"measurement": "cell viability", "setting": "[3]", "value": "did not significantly affect the viability"}, {"measurement": "production of IL-1β", "setting": "[4]", "value": "reduce the production of IL-1β in a dose-dependent manner"}, {"measurement": "cell viability", "setting": "[5]", "value": "did not significantly affect the viability"}, {"measurement": "production of IL-8 cytokine", "setting": "[6]", "value": "demonstrated immunomodulatory activity on the production of IL-8 cytokine"}, {"measurement": "cell viability", "setting": "[7]", "value": "did not significantly affect the viability"}]}]}
